Source: PubChem BioAssay (NCI)
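These data come from cells grown in 96-well plates and exposed to compound for 48 hours at five concentrations. At the TGI there is no net growth.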

Legend:
Test in all cases: NCI tumour cell line growth inhibition, 48 h
[1] = tested on: 786-0 renal
[2] = tested on: A498 renal
[3] = tested on: A549 NSCLC
[4] = tested on: ACHN renal
[5] = tested on: BT-549 breast
[6] = tested on: CAKI-1 renal
[7] = tested on: CCRF-CEM leukemia
[8] = tested on: DU-145 prostate
[9] = tested on: EKVX NSCLC
[10] = tested on: HCC-2998 colon
[11] = tested on: HCT-116 colon
[12] = tested on: HCT-15 colon
[13] = tested on: HOP-62 NSCLC
[14] = tested on: HOP-92 NSCLC
[15] = tested on: HS 578T breast
[16] = tested on: HT29 colon
[17] = tested on: IGROV1 ovarian
[18] = tested on: KM12 colon
[19] = tested on: LOX IMVI melanoma
[20] = tested on: M14 melanoma
[21] = tested on: MALME-3M melanoma
[22] = tested on: MDA-MB-231 breast
[23] = tested on: MDA-MB-435
[24] = tested on: MDA-N
[25] = tested on: MOLT-4 leukemia
[26] = tested on: NCI-H226 lung
[27] = tested on: NCI-H23 lung
[28] = tested on: NCI-H460 lung
[29] = tested on: NCI-H522 lung
[30] = tested on: NCI/ADR-RES ovarian
[31] = tested on: OVCAR-3 ovarian
[32] = tested on: OVCAR-4 ovarian
[33] = tested on: OVCAR-5 ovarian
[34] = tested on: OVCAR-8 ovarian
[35] = tested on: PC-3 prostate
[36] = tested on: RXF 393 renal
[37] = tested on: SF-268 CNS
[38] = tested on: SF-295 CNS
[39] = tested on: SK-MEL-2 melanoma
[40] = tested on: SK-MEL-28 melanoma
[41] = tested on: SK-MEL-5 melanoma
[42] = tested on: SN12C renal
[43] = tested on: SNB-19 CNS
[44] = tested on: SNB-75 CNS
[45] = tested on: SW-620 colon
[46] = tested on: T-47D breast
[47] = tested on: TK-10 renal
[48] = tested on: U251 CNS
[49] = tested on: UACC-257 melanoma
[50] = tested on: UACC-62 melanoma
[51] = tested on: UO-31 renal
[52] = tested on: COLO 205 colon
[53] = tested on: HL-60(TB) leukemia
[54] = tested on: K-562 leukemia
[55] = tested on: MCF7 breast
[56] = tested on: RPMI-8226 leukemia
[57] = tested on: SF-539 CNS
[58] = tested on: SK-OV-3 ovarian

Cn1c(=O)c2[nH]c(CCCCC(=O)O)nc2n(C)c1=O
TGI [1]: > 100 µM | TGI [2]: > 100 µM | TGI [3]: > 100 µM | TGI [4]: > 100 µM | TGI [5]: > 100 µM | TGI [6]: > 100 µM | TGI [7]: > 100 µM | TGI [8]: > 100 µM | TGI [9]: > 100 µM | TGI [10]: > 100 µM | TGI [11]: > 100 µM | TGI [12]: > 100 µM | TGI [13]: > 100 µM | TGI [14]: > 100 µM | TGI [15]: > 100 µM | TGI [16]: > 100 µM | TGI [17]: > 100 µM | TGI [18]: > 100 µM | TGI [19]: > 100 µM | TGI [20]: > 100 µM | TGI [21]: > 100 µM | TGI [22]: > 100 µM | TGI [23]: > 100 µM | TGI [24]: > 100 µM | TGI [25]: > 100 µM | TGI [26]: > 100 µM | TGI [27]: > 100 µM | TGI [28]: > 100 µM | TGI [29]: > 100 µM | TGI [30]: > 100 µM | TGI [31]: > 100 µM | TGI [32]: > 100 µM | TGI [33]: > 100 µM | TGI [34]: > 100 µM | TGI [35]: > 100 µM | TGI [36]: > 100 µM | TGI [37]: > 100 µM | TGI [38]: > 100 µM | TGI [39]: > 100 µM | TGI [40]: > 100 µM | TGI [41]: > 100 µM | TGI [42]: > 100 µM | TGI [43]: > 100 µM | TGI [44]: > 100 µM | TGI [45]: > 100 µM | TGI [46]: > 100 µM | TGI [47]: > 100 µM | TGI [48]: > 100 µM | TGI [49]: > 100 µM | TGI [50]: > 100 µM | TGI [51]: > 100 µM

O=C1C=CC=C/C1=C1\N=C(c2ccccc2OCC(=O)c2ccc(Br)cc2)SS1
TGI [1]: > 100 µM | TGI [2]: > 100 µM | TGI [3]: > 100 µM | TGI [4]: > 100 µM | TGI [5]: 62.9 µM | TGI [6]: > 100 µM | TGI [7]: > 100 µM | TGI [52]: > 100 µM | TGI [8]: > 100 µM | TGI [9]: > 100 µM | TGI [10]: > 100 µM | TGI [11]: > 100 µM | TGI [12]: > 100 µM | TGI [53]: > 100 µM | TGI [13]: 24 µM | TGI [14]: > 100 µM | TGI [15]: 76.2 µM | TGI [16]: > 100 µM | TGI [17]: 71.3 µM | TGI [54]: > 100 µM | TGI [18]: > 100 µM | TGI [19]: > 100 µM | TGI [20]: > 100 µM | TGI [21]: > 100 µM | TGI [55]: > 100 µM | TGI [23]: > 100 µM | TGI [24]: > 100 µM | TGI [26]: > 100 µM | TGI [27]: > 100 µM | TGI [28]: > 100 µM | TGI [30]: > 100 µM | TGI [31]: > 100 µM | TGI [32]: > 100 µM | TGI [33]: > 100 µM | TGI [34]: > 100 µM | TGI [35]: > 100 µM | TGI [56]: > 100 µM | TGI [36]: > 100 µM | TGI [37]: > 100 µM | TGI [38]: > 100 µM | TGI [57]: > 100 µM | TGI [39]: > 100 µM | TGI [40]: > 100 µM | TGI [41]: > 100 µM | TGI [58]: > 100 µM | TGI [42]: > 100 µM | TGI [43]: > 100 µM | TGI [44]: 44.5 µM | TGI [45]: > 100 µM | TGI [46]: > 100 µM | TGI [47]: > 100 µM | TGI [48]: > 100 µM | TGI [49]: > 100 µM | TGI [50]: > 100 µM | TGI [51]: > 100 µM
